The results in this text go back to the SangsterLogP compilation.

Each structure is given as a SMILES string.

Assay in the first series: not given
Conditions: not given
Take `CSc1nc2cc(Cl)ccc2[nH]1`: the logP (as a rule, a log measure of how a compound divides between an organic and an aqueous phase) came to 3.22.

Regarding `Brc1n[nH]c(Br)n1`, the logP turned out to be 2.24. The molecule `FC(F)(F)c1nc2c(Cl)c(Cl)ccc2[nH]1` showed a logP of 3.49. Molecule `FC(F)(F)c1nc2c(Cl)cc(Cl)cc2[nH]1` registered a logP of 3.49.

With `FC(F)(F)c1nc2c(Br)c(Br)c(Br)cc2[nH]1`, the logP came to 4.08.

`Clc1nc(Cl)c(Cl)[nH]1` registered a logP of 1.85. Same read-out and setting: the same measure for `FC(F)(F)c1nc2cc(Br)ccc2[nH]1`: 3.57; for `FC(F)(F)c1nc2cc(Cl)c(Cl)cc2[nH]1`: 3.99. In the case of `FC(F)(F)c1nc2cc(Cl)ccc2[nH]1`, the logP came out at 3.39. In the case of `Cc1c(C)c(Cl)c2[nH]c(C(F)(F)F)nc2c1Cl`, the logP turned out to be 3.19. Still for that read-out and setting: for `FC(F)(F)c1nc2c(Cl)c(Cl)c(Cl)c(Cl)c2[nH]1` the value was 3.97.

`FC(F)(F)c1nc2c(Cl)ccc(Cl)c2[nH]1` showed a logP of 2.87. Same read-out and setting: the same measure for `Ic1nc(I)c(I)[nH]1`: 2.78; for `Brc1nc(Br)c2[nH]c(Br)nc2n1`: 3.08. The same measure, in the same setting: for `FC(F)(F)c1nc2c(Cl)cccc2[nH]1` the value was 2.93. On the same count and under the same terms, for `FC(F)(F)c1nc2c(Br)c(Br)c(Br)c(Br)c2[nH]1` the value was 4.81. In turn, `Brc1nn[nH]c1Br` returned a logP of 2.44. The same measure, in the same setting: for `FC(F)(F)c1nc2cc(Br)c(Br)cc2[nH]1` the value was 4.15; for `O=[N+]([O-])c1ccc2[nH]c(C(F)(F)F)nc2c1`, 2.68; for `FC(F)(F)c1nc2c(Cl)c(Cl)cc(Cl)c2[nH]1`, 3.78. In the case of `FC(F)(F)c1nc2c(Cl)c(Cl)c(Cl)cc2[nH]1`, the logP worked out at 3.87. In turn, `CCCCCCCCc1ccc2[nH]c(C(F)(F)F)nc2c1` came in with a logP of 4.38. Molecule `Cc1cc2nc[nH]c2cc1C` showed a logP of 2.35.

The molecule `CCCCc1ccc2[nH]c(C(F)(F)F)nc2c1` displayed a logP of 4.27. Molecule `FC(F)(F)c1nc2ccccc2[nH]1` had a lipophilicity (logP) of 2.67.

The nature of the next series: from Büchel, K. H., & Draber, W. (1969). Structure-activity relationship of photosynthesis inhibition by NH-acidic pi-excessive heteroaromatics. In H. Metzner (Ed.), Progress in Photosynthesis Research: …. The conditions noted are these: pH 7.3.
Take `FC(F)(F)c1nc2cnccc2[nH]1`: the logD (usually the decadic logarithm of the distribution of all forms, ionised or not, between an organic phase and buffer at a given pH) is 0.94. For the molecule `FC(F)(F)c1nc2nc3c(Cl)cc(Cl)cc3nc2[nH]1`, the logD was 5.18. As for `FC(F)(F)c1nc2nc3ccccc3nc2[nH]1`, the logD is 3.08. As for `FC(F)(F)c1nc2ncccc2[nH]1`, the logD stood at 1.38.

Molecule `FC(F)(F)c1nc2nc3cc(Cl)ccc3nc2[nH]1` registered a logD of 3.91. For `FC(F)(F)c1nc2ncc(Cl)cc2[nH]1`, the logD stood at 2.46.
